According to US20210261512A1, “NOVEL COMPOUNDS” (INFLAZOME LIMITED, priority 2018, published 2021):

Experiments:
[1] = molecular target: T1, NLRP3 (Homo sapiens, UniProt Q96P20); assay: Human whole blood IL1β release assay; format: cell-based; conditions: LPS 1 μg/ml, nigericin 10 μM, IL-1β AlphaLisa, 10 μM top dose (Example 2: top dose of 30 μM), read-out: HWB IC50
Outline: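 Healthy-donor heparinised human whole blood with 1 μg/ml LPS, compound (8-point half-log dilution, 10 μM top dose unless stated; 0.1% DMSO vehicle) for 3 h at 37 °C, then nigericin 10 μM final for 1 h. Supernatant IL-1β by AlphaLISA; IC50 from 4-parameter variable-slope fit.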

[2] = PK, intravenous administration; format: in vivo; conditions: rat, plasma, male Sprague Dawley rats, dose about 1 mg/kg; for Vd: read-out: Vdss
Method: Pharmacokinetic parameters were determined in male Sprague Dawley rats (Vital River Laboratory Animal Technology Co Ltd, Beijing, China, 6-9 weeks old). Animals were maintained under a 12 h light/dark cycle. Animals had free access to food and water, except that orally dosed animals were food deprived overnight prior to the study.
For intravenous administration, compounds were formulated as a solution (in DMSO:water [10:90] or in DMSO:PBS [10:90]) in 2 mL/kg dosing volume and administered via tail vein. For oral administration, compounds were formulated as a solution (in 0.5% methylcellulose in water) in […] dosing volume and administered orally.
Serial blood samples (about 200 μL) were taken from each animal at each of 8 time-points post dose ([…], 0.25, 0.5, 1, 2, 4, 8 and 24 h). Samples were held on ice for no longer than 30 minutes before centrifugation (5,696 rpm (3,000 g) for 15 minutes) for plasma generation. Plasma was frozen on dry ice prior to bioanalysis. PK parameters were generated from LC-MS/MS data using Phoenix WinNonlin 6.3 software.

[3] = molecular target: T1, NLRP3; assay: THP-1 cells pyroptosis assay; format: cell-based; parameters: Seed THP-1 cells (25,000 cells/well) containing 1.0 μg/ml LPS; host or cells: THP-1; conditions: LPS 1.0 μg/ml, nigericin 5 μM, resazurin readout, 10 μM top dose (Example 2: top dose of 30 μM)
Outline: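 THP-1 cells (25,000/well) primed with 1 μg/ml LPS in serum-free RPMI, treated with compound (8-point dilution, 10 μM top unless stated; 0.1% DMSO) 3 h at 37°C, then nigericin 5 μM 1 h. Viability read by resazurin (100 μM, 1-2 h) fluorescence; IC50 from 4-parameter fit.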

T1 sequence (Q96P20 whole entry): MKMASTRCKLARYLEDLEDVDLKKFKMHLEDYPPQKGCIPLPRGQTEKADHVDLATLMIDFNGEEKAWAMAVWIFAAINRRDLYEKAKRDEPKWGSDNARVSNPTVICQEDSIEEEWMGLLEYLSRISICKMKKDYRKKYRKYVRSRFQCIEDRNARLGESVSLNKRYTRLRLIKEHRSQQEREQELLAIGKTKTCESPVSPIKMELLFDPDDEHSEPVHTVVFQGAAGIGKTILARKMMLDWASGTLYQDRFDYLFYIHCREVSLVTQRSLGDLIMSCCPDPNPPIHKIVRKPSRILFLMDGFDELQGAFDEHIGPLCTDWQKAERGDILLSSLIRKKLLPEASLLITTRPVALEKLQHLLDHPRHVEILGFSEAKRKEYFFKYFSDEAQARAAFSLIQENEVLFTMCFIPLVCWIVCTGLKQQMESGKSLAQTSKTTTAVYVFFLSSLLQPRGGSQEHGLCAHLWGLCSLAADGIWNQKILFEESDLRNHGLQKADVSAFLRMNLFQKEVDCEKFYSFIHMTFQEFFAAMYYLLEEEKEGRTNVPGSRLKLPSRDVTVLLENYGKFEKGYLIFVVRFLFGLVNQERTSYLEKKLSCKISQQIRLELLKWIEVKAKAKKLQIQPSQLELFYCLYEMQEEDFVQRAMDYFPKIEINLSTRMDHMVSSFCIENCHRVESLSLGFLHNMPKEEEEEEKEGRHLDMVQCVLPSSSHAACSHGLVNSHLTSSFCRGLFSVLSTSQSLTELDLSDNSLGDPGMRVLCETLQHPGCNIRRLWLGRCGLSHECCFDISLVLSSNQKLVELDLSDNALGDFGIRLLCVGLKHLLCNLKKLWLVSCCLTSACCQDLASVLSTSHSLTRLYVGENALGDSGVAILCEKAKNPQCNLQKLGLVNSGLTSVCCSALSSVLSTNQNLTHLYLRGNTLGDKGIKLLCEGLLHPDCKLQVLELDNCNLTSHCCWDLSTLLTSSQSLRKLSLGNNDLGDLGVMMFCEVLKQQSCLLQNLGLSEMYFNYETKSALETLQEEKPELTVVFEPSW

| IC50 [1] | AUC [2] | clearance [2] | half-life [2] | Vd [2] | IC50 [3] | Compound |
| --- | --- | --- | --- | --- | --- | --- |
| ≤ 10000 nM | 364 ng·h/mL | 45.8 mL/min/kg | 24 min | 1.09 L/kg | ≤ 5000 nM | CC(C)N1CC(S(=O)(=O)c2nnc(Nc3c4c(cc5c3CCC5)CCC4)[nH]2)C1 [Example 22, N-(1,2,3,5,6,7-hexahydro-s-indacen-4-yl)-5-((1-isopropylazetidin-3-yl)sulfonyl)-4H-1,2,4-triazol-3-amine] |
| ≤ 500 nM | 239 ng·h/mL | 69.7 mL/min/kg | 116 min | 7.51 L/kg | ≤ 500 nM | CN1CCC2(CCN(S(=O)(=O)c3nnc(Nc4c5c(cc6c4CCC6)CCC5)[nH]3)CC2)C1 [Example 276, N-(1,2,3,5,6,7-hexahydro-s-indacen-4-yl)-5-((2-methyl-2,8-diazaspiro[4.5]decan-8-yl)sulfonyl)-4H-1,2,4-triazol-3-amine] |
| ≤ 5000 nM | 278 ng·h/mL | 60 mL/min/kg | 60 min | 3.24 L/kg | ≤ 1000 nM | CN1CCCC1CCS(=O)(=O)c1nnc(Nc2c3c(cc4c2CCC4)CCC3)[nH]1 (centres unmarked) [Example 60, N-(1,2,3,5,6,7-hexahydro-s-indacen-4-yl)-3-((2-(1-methylpyrrolidin-2-yl)ethyl)sulfonyl)-1H-1,2,4-triazol-5-amine] |
| ≤ 1000 nM | 216 ng·h/mL | 77.2 mL/min/kg | 46.8 min | 1.48 L/kg | ≤ 500 nM | COc1cc(-c2ccc3c(c2Nc2nnc(S(=O)(=O)N4CCC(N(C)C)CC4)[nH]2)CCO3)ccn1 [Example 226, 1-((5-((5-(2-methoxypyridin-4-yl)-2,3-dihydrobenzofuran-4-yl)amino)-4H-1,2,4-triazol-3-yl)sulfonyl)-N,N-dimethylpiperidin-4-amine] |
| ≤ 1000 nM | 175 ng·h/mL | 95.3 mL/min/kg | 151 min | 12.1 L/kg | ≤ 500 nM | O=S(=O)(c1nnc(Nc2c3c(cc4c2CCC4)CCC3)[nH]1)N1CCC2(CCCN2)CC1 [Example 268, 5-((1,8-diazaspiro[4.5]decan-8-yl)sulfonyl)-N-(1,2,3,5,6,7-hexahydro-s-indacen-4-yl)-4H-1,2,4-triazol-3-amine] |
| ≤ 5000 nM | 198 ng·h/mL | 84.1 mL/min/kg | 21.6 min | 2.66 L/kg | ≤ 500 nM | CC(C)c1cc(F)cc(-c2ccncc2)c1Cc1nnc(S(=O)(=O)N2CCC(CN(C)C)C2)[nH]1 (centres unmarked) [Example 153, 1-(1-((5-(4-fluoro-2-isopropyl-6-(pyridin-4-yl)benzyl)-4H-1,2,4-triazol-3-yl)sulfonyl)pyrrolidin-3-yl)-N,N-dimethylmethanamine] |
| ≤ 1000 nM | 173 ng·h/mL | 96.5 mL/min/kg | 48 min | 5.26 L/kg | ≤ 500 nM | CCN(CC)CCCS(=O)(=O)c1nnc(Nc2c3c(cc4c2CCC4)CCC3)[nH]1 [Example 24, 5-((3-(diethylamino)propyl)sulfonyl)-N-(1,2,3,5,6,7-hexahydro-s-indacen-4-yl)-4H-1,2,4-triazol-3-amine] |
| ≤ 10000 nM | 1240 ng·h/mL | 13.5 mL/min/kg | 39.2 min | 0.518 L/kg | ≤ 500 nM | CC(C)(O)Cn1ccc(S(=O)(=O)c2nnc(Nc3c4c(cc5c3CCC5)CCC4)[nH]2)n1 [Example 328, 1-(3-((5-((1,2,3,5,6,7-hexahydro-s-indacen-4-yl)amino)-4H-1,2,4-triazol-3-yl)sulfonyl)-1H-pyrazol-1-yl)-2-methylpropan-2-ol] |
| ≤ 1000 nM | 267 ng·h/mL | 65.5 mL/min/kg | 42.6 min | 1.29 L/kg | ≤ 1000 nM | COc1cc(-c2cc(F)cc(C(C)C)c2Oc2nnc(S(=O)(=O)N3CCC(CN(C)C)C3)[nH]2)ccn1 (centres unmarked) [Example 69, 1-(1-((5-(4-fluoro-2-isopropyl-6-(2-methoxypyridin-4-yl)phenoxy)-4H-1,2,4-triazol-3-yl)sulfonyl)pyrrolidin-3-yl)-N,N-dimethylmethanamine] |
| ≤ 1000 nM | 459 ng·h/mL | 36.3 mL/min/kg | 19.6 min | 0.494 L/kg | ≤ 500 nM | COc1cc(-c2ccc3c(c2Nc2nnc(S(=O)(=O)N4CC[C@H](C(C)(C)O)C4)[nH]2)CCC3)ccn1 [Example 231, (S)-2-(1-((5-((5-(2-methoxypyridin-4-yl)-2,3-dihydro-1H-inden-4-yl)amino)-4H-1,2,4-triazol-3-yl)sulfonyl)pyrrolidin-3-yl)propan-2-ol] |
| ≤ 500 nM | 236 ng·h/mL | 71 mL/min/kg | 152 min | 9.16 L/kg | ≤ 500 nM | CN1CCC12CCN(S(=O)(=O)c1nnc(Nc3c4c(cc5c3CCC5)CCC4)[nH]1)CC2 [Example 270, N-(1,2,3,5,6,7-hexahydro-s-indacen-4-yl)-5-((1-methyl-1,7-diazaspiro[3.5]nonan-7-yl)sulfonyl)-4H-1,2,4-triazol-3-amine] |
| ≤ 5000 nM | – | – | – | – | ≤ 500 nM | Cc1cc2c(c(Nc3nnc(S(=O)(=O)c4ccccc4)[nH]3)c1-c1ccnc(OC3CCOCC3)c1)CCC2 [Example 370, N-(6-methyl-5-(2-((tetrahydro-2H-pyran-4-yl)oxy)pyridin-4-yl)-2,3-dihydro-1H-inden-4-yl)-5-(phenylsulfonyl)-4H-1,2,4-triazol-3-amine] |
| ≤ 5000 nM | – | – | – | – | ≤ 5000 nM | CC(C)c1cc(F)cc(-c2ccncc2)c1Oc1nnc(S(=O)(=O)N2CCC(CN(C)C)C2)[nH]1 (centres unmarked) [Example 152, 1-(1-((5-(4-fluoro-2-isopropyl-6-(pyridin-4-yl)phenoxy)-4H-1,2,4-triazol-3-yl)sulfonyl)pyrrolidin-3-yl)-N,N-dimethylmethanamine] |
| ≤ 10000 nM | – | – | – | – | ≤ 500 nM | COC(C)(C)Cn1ccc(S(=O)(=O)c2nnc(Nc3c4c(cc5c3CCC5)CCC4)[nH]2)n1 [Example 18, N-(1,2,3,5,6,7-hexahydro-s-indacen-4-yl)-5-((1-(2-methoxy-2-methylpropyl)-1H-pyrazol-3-yl)sulfonyl)-4H-1,2,4-triazol-3-amine] |
| ≤ 1000 nM | – | – | – | – | ≤ 500 nM | COc1cc(-c2ccc3c(c2Nc2nnc(S(=O)(=O)N4CCC(N(C)C)CC4)[nH]2)CCC3)ccn1 [Example 228, 1-((5-((5-(2-methoxypyridin-4-yl)-2,3-dihydro-1H-inden-4-yl)amino)-4H-1,2,4-triazol-3-yl)sulfonyl)-N,N-dimethylpiperidin-4-amine] |
| ≤ 5000 nM | – | – | – | – | ≤ 500 nM | O=S(=O)(c1nnc(Nc2c3c(cc4c2CCC4)CCC3)[nH]1)N1CCC2(CCN2C2CC2)CC1 [Example 254, 5-((1-cyclopropyl-1,7-diazaspiro[3.5]nonan-7-yl)sulfonyl)-N-(1,2,3,5,6,7-hexahydro-s-indacen-4-yl)-4H-1,2,4-triazol-3-amine] |
| ≤ 5000 nM | – | – | – | – | ≤ 500 nM | O=S(=O)(c1nnc(Nc2c3c(cc4c2CCC4)CCC3)[nH]1)N1CCC2(CCOC2)CC1 [Example 360, 5-((2-oxa-8-azaspiro[4.5]decan-8-yl)sulfonyl)-N-(1,2,3,5,6,7-hexahydro-s-indacen-4-yl)-4H-1,2,4-triazol-3-amine] |
| ≤ 1000 nM | – | – | – | – | ≤ 500 nM | CN(C)C1CCN(S(=O)(=O)c2nnc(Nc3c(-c4ccnc(OC(F)F)c4)ccc4c3CCO4)[nH]2)CC1 [Example 225, 1-((5-((5-(2-(difluoromethoxy)pyridin-4-yl)-2,3-dihydrobenzofuran-4-yl)amino)-4H-1,2,4-triazol-3-yl)sulfonyl)-N,N-dimethylpiperidin-4-amine] |
| ≤ 500 nM | – | – | – | – | ≤ 500 nM | CN1CCCC12CCN(S(=O)(=O)c1nnc(Nc3c(-c4ccnc(OC(F)F)c4)ccc4c3CCC4)[nH]1)CC2 [Example 201, N-(5-(2-(difluoromethoxy)pyridin-4-yl)-2,3-dihydro-1H-inden-4-yl)-5-((1-methyl-1,8-diazaspiro[4.5]decan-8-yl)sulfonyl)-4H-1,2,4-triazol-3-amine] |
| ≤ 5000 nM | – | – | – | – | ≤ 500 nM | COc1cc(-c2cc(F)cc(C(C)C)c2Nc2nnc(S(=O)(=O)N3CCC4(CCN4C)CC3)[nH]2)ccn1 [Example 249, N-(4-fluoro-2-isopropyl-6-(2-methoxypyridin-4-yl)phenyl)-5-((1-methyl-1,7-diazaspiro[3.5]nonan-7-yl)sulfonyl)-4H-1,2,4-triazol-3-amine] |
| ≤ 5000 nM | – | – | – | – | ≤ 5000 nM | CC(CNS(=O)(=O)c1nnc(Nc2c3c(cc4c2CCC4)CCC3)[nH]1)N(C)C (centres unmarked) [Example 290, N-(2-(dimethylamino)propyl)-5-((1,2,3,5,6,7-hexahydro-s-indacen-4-yl)amino)-4H-1,2,4-triazole-3-sulfonamide] |
